The text below walks through data of patent publication US20050239784A1 (priority 2002, published 2005).

In brackets after ≈: the same amount, converted by molar mass. Read-outs that look alike come from different tables or passages of the source.

One data set relates to A2780 cells. Put plainly: Cytotox survival of A2780 cells after 3 days. The data set is classed as cell-based. The conditions noted are these: Homo sapiens, A2780, 72 h. The protocol: In an alternative assay, the growth inhibitory effect of the compounds was tested on the ovarian carcinoma cell line A2780 using art known cytotoxicity assays such as LIVE/DEAD (Molecular Probes) MTT.

The next data set concerns the target CDK4 (Homo sapiens, UniProt P11802). Put plainly: biochemical.
Data set [1] concerns the target T1, AKT3 (Homo sapiens, UniProt Q9Y243). Put plainly: cell-based.
Target sequence in this assay (Q9Y243 whole entry): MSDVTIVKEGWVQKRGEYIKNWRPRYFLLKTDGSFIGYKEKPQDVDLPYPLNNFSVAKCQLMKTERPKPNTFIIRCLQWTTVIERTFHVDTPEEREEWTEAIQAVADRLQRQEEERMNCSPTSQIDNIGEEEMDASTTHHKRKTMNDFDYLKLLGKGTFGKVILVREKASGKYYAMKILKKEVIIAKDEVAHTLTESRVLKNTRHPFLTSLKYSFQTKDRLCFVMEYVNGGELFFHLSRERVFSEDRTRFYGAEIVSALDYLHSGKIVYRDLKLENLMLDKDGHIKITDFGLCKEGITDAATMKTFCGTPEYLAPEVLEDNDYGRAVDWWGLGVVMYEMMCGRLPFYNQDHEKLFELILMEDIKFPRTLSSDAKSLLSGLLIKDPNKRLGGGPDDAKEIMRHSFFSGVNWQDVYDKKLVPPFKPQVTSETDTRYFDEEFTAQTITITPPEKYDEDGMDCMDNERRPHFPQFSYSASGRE
The next data set addresses T2, CDC25B (Homo sapiens, UniProt P30305).
T2 sequence (P30305 1-580): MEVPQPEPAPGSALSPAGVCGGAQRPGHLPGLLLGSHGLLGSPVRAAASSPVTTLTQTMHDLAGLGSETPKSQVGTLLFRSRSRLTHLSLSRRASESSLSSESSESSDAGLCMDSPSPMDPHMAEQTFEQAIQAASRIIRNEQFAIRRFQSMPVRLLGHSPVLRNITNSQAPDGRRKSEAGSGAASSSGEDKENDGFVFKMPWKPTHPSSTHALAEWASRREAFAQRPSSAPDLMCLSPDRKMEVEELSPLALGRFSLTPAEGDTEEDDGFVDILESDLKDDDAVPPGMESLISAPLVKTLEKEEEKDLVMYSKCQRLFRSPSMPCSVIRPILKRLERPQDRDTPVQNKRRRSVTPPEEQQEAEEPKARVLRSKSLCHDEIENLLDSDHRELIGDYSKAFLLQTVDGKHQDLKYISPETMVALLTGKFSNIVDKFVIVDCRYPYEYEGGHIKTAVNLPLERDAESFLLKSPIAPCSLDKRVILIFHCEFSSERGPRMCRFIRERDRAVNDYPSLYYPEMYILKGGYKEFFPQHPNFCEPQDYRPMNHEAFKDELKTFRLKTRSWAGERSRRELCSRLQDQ
Put plainly: biochemical.

Another data set can be described thus: physchem. As to conditions: pH 7.4, aqueous buffer, kinetic from dmso stock.
Data set [2] has as its target T1, AKT3. As to the kind of experiment: biochemical.
Target sequence in this assay (Q9Y243 whole entry, species assumed): as the sequence (Q9Y243 whole entry) above
The mark [3] stands for this setting: read-out: Cytotox survival of A2780 cells after 3 days - pIC50 values, A2780 cells, 3 days (converted).
The mark [4] stands for this setting: read-out: CDK4 SPA (Ex. C.1): pIC50 values (converted).
The mark [5] stands for this setting: read-out: AKT cel (Ex. C.6): pIC50 values (converted).
Where [6] appears, read: read-out: CDC25B WT (Ex. C.5): pIC50 values (converted).
[7] abbreviates: read-out: AKT3 pep. (Ex. C.3): pIC50 values (converted).

Sequence of CDK4 (P11802 whole entry, species assumed): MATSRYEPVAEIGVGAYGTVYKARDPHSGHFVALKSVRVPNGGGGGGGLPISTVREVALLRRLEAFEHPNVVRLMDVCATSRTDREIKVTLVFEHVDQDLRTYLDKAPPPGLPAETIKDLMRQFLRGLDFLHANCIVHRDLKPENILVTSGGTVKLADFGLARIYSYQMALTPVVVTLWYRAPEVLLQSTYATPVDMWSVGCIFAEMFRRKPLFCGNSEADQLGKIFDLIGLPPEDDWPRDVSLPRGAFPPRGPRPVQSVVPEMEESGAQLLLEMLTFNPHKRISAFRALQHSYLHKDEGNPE
Sequence of CDK4 (P24385 whole entry partner, species assumed): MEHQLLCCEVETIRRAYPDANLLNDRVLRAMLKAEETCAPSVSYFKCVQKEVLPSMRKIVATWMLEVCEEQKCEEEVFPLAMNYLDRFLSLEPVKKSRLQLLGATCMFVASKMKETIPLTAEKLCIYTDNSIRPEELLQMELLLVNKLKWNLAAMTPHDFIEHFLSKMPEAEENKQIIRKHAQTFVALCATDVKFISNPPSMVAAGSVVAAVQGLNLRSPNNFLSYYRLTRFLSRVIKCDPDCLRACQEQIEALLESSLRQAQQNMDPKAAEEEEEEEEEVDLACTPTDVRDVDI

In turn, `Cn1nc(-c2ccccc2)nc2c(=O)n(C3CCN(C(=O)OC(C)(C)C)CC3)c(=O)nc1-2` yielded a melting point of more than 250 °C.

`Cn1c(=O)nc2n(C3CCN(C(=O)OC(C)(C)C)CC3)nc(-c3ccccc3)nc-2c1=O` had a melting point of 250 °C.

`COc1cc(-c2nc3c(=O)n(C)c(=O)nc-3n(C3CCCC3)n2)cc(OC)c1OCCN1CCOCC1` showed a melting point of 187.5 to 209 °C.

Take `CC(C)n1nc(-c2ccc(OCCN3CCOCC3)cc2)nc2c(=O)n(C)c(=O)nc1-2`: the melting point amounted to 232 °C.

`Cn1c(=O)nc2n(C3CCNCC3)nc(-c3ccccc3)nc-2c1=O` showed a melting point of more than 250 °C.

On to `COc1cc(-c2nc3c(=O)n(C)c(=O)nc-3n(C(C)C)n2)ccc1OCCN1CCCCC1`, for which the melting point was 222 °C.

For `CC(C)n1nc(-c2ccc(OCCN3CCN(C)CC3)cc2)nc2c(=O)n(C)c(=O)nc1-2` [Compound 97], the IC50 in the data set on A2780 cells (setting [3]) was 292 nM; at CDK4 (setting [4]), 164 nM; on AKT3 [1] (setting [5]), more than 3000 nM; on CDC25B (setting [6]) it was 42.7 nM; on AKT3 [2] (setting [7]), 198 nM. In addition, the solubility in “physchem” was more than 1800 µM.

In turn, `COc1cc(-c2nc3c(=O)n(C)c(=O)nc-3n(C(C)C)n2)ccc1OCCN1CCN(C)CC1` returned a melting point of 233 °C.

Take `CCCC(C)n1nc(-c2ccccc2)nc2c(=O)n(C)c(=O)nc1-2` (stereo not shown): the melting point came to 216 °C.

On to `COc1cc(-c2nc3c(=O)n(C)c(=O)nc-3n(C(C)C)n2)cc(OC)c1OCCN1CCN(S(N)(=O)=O)CC1` [Compound 96], for which the IC50 is 492 nM in the data set with A2780 cells (setting [3]); 205 nM on CDK4 (setting [4]); more than 3000 nM on AKT3 [1] (setting [5]); 45 nM at CDC25B (setting [6]); 175 nM on AKT3 [2] (setting [7]). In “physchem”, this compound returned a solubility of more than 1800 µM.

With `COc1cc(-c2nc3c(=O)n(C)c(=O)nc-3n(C)n2)ccc1OCCN1CCN(C)CC1`, the melting point worked out at 239 °C.

Take `CC(C)n1nc(-c2ccc(CN(C)C3CCN(S(=O)(=O)N(C)C)CC3)cc2)nc2c(=O)n(C)c(=O)nc1-2` [Compound 113]: the IC50 in the data set on A2780 cells (setting [3]) is 220 nM; at CDK4 (setting [4]) it was 151 nM; on AKT3 [1] (setting [5]), more than 3020 nM; at CDC25B (setting [6]) it was 119 nM; on AKT3 [2] (setting [7]) it was 184 nM. Besides, the solubility in “physchem” is more than 1800 µM.

With `CC(C)n1nc(-c2ccc(OCCN3CCCCC3)c(Cl)c2)nc2c(=O)n(C)c(=O)nc1-2` [Compound 88], the IC50 in the data set on A2780 cells (setting [3]) is 168 nM; on CDK4 (setting [4]), 267 nM; on AKT3 [1] (setting [5]), more than 1000 nM; on CDC25B (setting [6]), 25.8 nM; on AKT3 [2] (setting [7]) it was 239 nM. For the same compound, the solubility in the data set “physchem” fell in the range of 160 to 1800 µM (≈ 73.4 to 826 µg/mL).

With `COc1cc(-c2nc3c(=O)n(C)c(=O)nc-3n(C(C)C)n2)cc(OC)c1OCCN1CCN(C(=O)OC(C)(C)C)CC1` [Compound 89], the IC50 with A2780 cells (setting [3]) is 527 nM; on CDK4 (setting [4]), 506 nM; on AKT3 [1] (setting [5]), more than 1000 nM; at CDC25B (setting [6]), 35.5 nM; at AKT3 [2] (setting [7]), 352 nM. In addition, the solubility in “physchem” is more than 1800 µM.

For `CC(C)n1nc(-c2ccc(OCCN3CCNCC3)c(Cl)c2)nc2c(=O)n(C)c(=O)nc1-2` [Compound 104], the IC50 in the data set with A2780 cells (setting [3]) was 214 nM; on CDK4 (setting [4]), 128 nM; at AKT3 [1] (setting [5]), 726 nM; at CDC25B (setting [6]), 30.2 nM; on AKT3 [2] (setting [7]), 121 nM. Besides, the solubility in the data set “physchem” was more than 1800 µM.

Consider `CC(C)n1nc(-c2ccc(CN(C)CCO)cc2)nc2c(=O)n(C)c(=O)nc1-2` [Compound 111], for which the IC50 was 157 nM with A2780 cells (A2780 cells, 3 days, read-out: Cytotox survival of A2780 cells after 3 days - pIC50 values (converted)); 126 nM at CDK4 (CDK4 SPA (Ex. C.1): pIC50 values); 791 nM on AKT3 [1] (AKT cel (Ex. C.6): pIC50 values, MDA-MB 231 cells, phosphorylated MAPK read-out); 31 nM on CDC25B (CDC25B WT (Ex. C.5): pIC50 values); 161 nM on AKT3 [2] (AKT3 pep. (Ex. C.3): pIC50 values). In addition, the solubility in the data set “physchem” is more than 1800 µM.

`CCOC(=O)C(C)n1nc(-c2ccccc2)nc2c(=O)n(C)c(=O)nc1-2` (stereo not shown) came in with a melting point of 215 °C.

`COc1cc(-c2nc3c(=O)n(C)c(=O)nc-3n(C(C)C)n2)ccc1OCCN1CCCCC1` [Compound 78]: the IC50 in the data set with A2780 cells (setting [3]) was 269 nM; at CDK4 (setting [4]), 513 nM; on AKT3 [1] (setting [5]), 301 nM; on CDC25B (setting [6]), 44 nM; on AKT3 [2] (setting [7]) it was 262 nM. The same compound yielded a solubility in the data set “physchem” of more than 1800 µM.

For `CC(C)n1nc(-c2ccc(CN3CCN(S(=O)(=O)N(C)C)CC3)cc2)nc2c(=O)n(C)c(=O)nc1-2` [Compound 103], the IC50 is 425 nM in the data set with A2780 cells (setting [3]); 357 nM at CDK4 (setting [4]); more than 3020 nM at AKT3 [1] (setting [5]); 22.6 nM on CDC25B (setting [6]); 129 nM at AKT3 [2] (setting [7]). The same compound yielded a solubility in “physchem” of 160 to 1800 µM (≈ 80.4 to 905 µg/mL).

As usually defined, the melting point is the temperature, or range, at which the solid turns liquid. Broadly, the solubility is the concentration that dissolves in the medium under given conditions. Higher therefore signals a readily soluble substance.
